From patent US12397045B2, “Clostridioides difficile” (IMPERIAL COLLEGE OF SCIENCE, TECHNOLOGY AND MEDICINE, priority 2018, dated 2025)

How the values were obtained:
C. difficile = experiment: Growth inhibition of C. difficile with 20 mM short or medium chain fatty acids; format: cell-based, Clostridioides difficile; conditions: 20 mM fatty acid
Excerpt: Acetate is a C2 chain and they increase by one carbon until heptanoate is reached which is C7.
The inventors assessed a range of short/medium chain fatty acids (S/MCFA).

[1] = system: colonocyte cell line Caco2; experiment: MTT viability assay of Caco2 cells; format: cell-based; conditions: 45 mM, 48 h
Protocol: A higher OD value represents greater viability.
The inventors determined to what extent the C5, C6 and C7 chain length fatty acids affect viability of the colonocyte cell line Caco2. Caco2 cells were grown until confluent in DMEM with serum and then trypsinised and diluted to 10^5 cells per ml and re-seeded into a 24 well plate and allowed to grow for a further 48 hours. At this point they were exposed to a 45 mM concentration of the SCFA or MCFA for 48 h and viability assessed using an MT assay.

CD 027 = experiment: Isovalerate inhibition of C. difficile growth; format: cell-based, Clostridioides difficile; conditions: strain CD 027
Excerpt: (§1) The inventors tested the ability of isovalerate to inhibit C. difficile growth (FIG. 36).

CD010 = experiment: Isovalerate inhibition of C. difficile growth; format: cell-based, Clostridioides difficile; conditions: strain CD010
Excerpt: as §1

CD012 = experiment: Isovalerate inhibition of C. difficile growth; format: cell-based, Clostridioides difficile; conditions: strain CD012
Excerpt: as §1

[2] = system: C. difficile ribotype 010; experiment: C. difficile batch cultures, vegetative growth with valerate (OD600); format: cell-based, Clostridioides difficile; conditions: sBHI broth pH 6.8, p=0.008
Protocol: (§2) Vegetative cells were inoculated into sBHI broth containing varying concentrations of valerate (o, 1, 2, 3, 4, 5, 10, and 20 mM) and OD600 measurements were taken at 0, 2, 4, 6, and 8 hours. The change in OD600 (from a time point during the exponential phase) was plotted against the concentrations of valerate tested. (a) C. difficile ribotype 010, (b) C. difficile ribotype 012, (c) C. difficile ribotype 027, (d) Bacteroides uniformis, (e) Bacteroides vulgatus, (f) Clostridium scindens. Error bars represent the mean standard deviation, * p<0.05, ** p<0.01, *** p<0.001.
(§3) The inventors tested the effects of valerate (Fisher Scientific) on the vegetative growth of three C. difficile ribotypes (010, 012, and 027) as well as several gut commensal bacteria (Bacteroides uniformis, Bacteroides vulgatus, and Clostridium scindens). […] The inventors plotted the changes in OD600 (from a time point during the exponential phase) against each concentration of valerate tested. The inventors used ANOVA and Tukey post hoc test to determine whether the concentration of valerate tested affected the growth of the test isolate compared to batch cultures grown in the absence of valerate.
(§4) C. difficile DS1684 (ribotype 010, non-toxigenic strain) was used for chemostat model experiments. C. difficile DS1684, C. difficile CD630 (ribotype 012, virulent multidrug resistant strain), C. difficile R20291 (ribotype 027, a hypervirulent strain), Bacteroides uniformis, Bacteroides vulgatus, and Clostridium scindens (DSM 5676) were used in batch culture experiments. C. difficile ribotype 027 is a common ribotype in Europe and North America,^1-3 while ribotype 012 is one of the common ribotypes in mainland China.^4,5 CD630 and R20291 are genetically and phenotypically well-characterised and are good representatives of their ribotypes.^6 B. uniformis and B. vulgatus were isolated from the stool of a healthy person using fastidious anaerobe agar (Lab M, Heywood, UK) or nutrient agar (Sigma-Aldrich, St. Louis, USA), respectively.

[3] = system: C. difficile ribotype 012; experiment: as above; format: cell-based, Clostridioides difficile; conditions: sBHI broth pH 6.8, p=0.003
Protocol: as §2, §3, §4

[4] = system: C. difficile ribotype 027; experiment: as above; format: cell-based, Clostridioides difficile; conditions: sBHI broth pH 6.8, p=0.008
Protocol: as §2, §3, §4

Bacteroides uniformis = experiment: Batch cultures of gut commensal with valerate (OD600); format: cell-based; conditions: only concentration that inhibited, p=0.026
Protocol: as §2, §3, §4

Bacteroides vulgatus = experiment: as above; format: cell-based
Protocol: as §2, §3, §4

Clostridium scindens = experiment: as above; format: cell-based; conditions: 0-20 mM valerate tested, p>0.05
Protocol: as §2, §3, §4

[5] = system: 6 strains of C. difficile; experiment: Valerate inhibition of 6 strains of C. difficile (change in OD600); format: cell-based, Clostridioides difficile; conditions: 0, 5, 10, 20 mM valerate
Excerpt: Error bars represent mean±SD. **p<0.01;[…] (ANOVA and Tukey post hoc test), N=12.
As there are many strains of the C. difficile pathogen, the inventors extended the range of strains to determine how valerate inhibited growth (FIG. 32), and have also assessed the ability of valerate to target other species of bacteria (FIG. 33).

gut organoids = conditions: 5 mM valerate; personal communication; cited from earlier work

Row | Structure (SMILES) | inhibition of C. difficile growth (C. difficile) | potency at inhibiting growth relative to valerate (C. difficile) | viability of colonocytes [1] | viability of colonocytes ([1]; listed as C6) | inhibition of C. difficile growth (CD 027) | inhibition of C. difficile growth (CD010) | inhibition of C. difficile growth (CD012) | valerate concentration inhibiting vegetative growth [2] [mM] | valerate concentration inhibiting vegetative growth [3] [mM] | valerate concentration inhibiting vegetative growth [4] [mM] | valerate concentration inhibiting growth (Bacteroides uniformis) [mM] | inhibition of growth by valerate (Bacteroides vulgatus; 0-20 mM valerate tested) | growth in broths containing valerate (Bacteroides vulgatus; 10 mM (p=0.020) or 20 mM (p=0.019) valerate) | inhibition of growth by valerate (Clostridium scindens) | inhibition of growth of C. difficile strains [5] | cell death / alterations in gene expression (gut organoids)
1 | CCCCCCC(=O)O [heptanoate, heptanoic acid] | potent inhibitors | significantly more potent | do not significantly decrease | – | – | – | – | – | – | – | – | – | – | – | – | –
2 | CCCCCC(=O)O [hexanoate, hexanoic acid] | potent inhibitors | significantly more potent | significantly increased | do not significantly decrease | – | – | – | – | – | – | – | – | – | – | – | –
3 | CC(C)CC(=O)O [isovalerate] | – | – | – | – | comparable to valerate | significant ability to inhibit growth | significant ability to inhibit growth | – | – | – | – | – | – | – | – | –
4 | CCCCC(=O)O [valerate, valeric acid] | potent inhibitors | – | do not significantly decrease | – | – | inhibited to a greater extent | inhibited to a greater extent | 4 | 2 | 2 | 20 | not inhibited at any concentration | grew better | not inhibited at any concentration | effective against all strains | did not result in cell death or cause significant alterations in gene expression
